According to publication PMC9920254 (Molecules, 2023):

Tests used:
UGT1A1 = molecular target: T1, UGT1A1 (Rattus norvegicus, UniProt Q64550); test: Chemical inhibition assay of PND metabolism in RLM, UGT1A1 inhibitor; type: in vitro ADME; details: liver microsomes, pH 7.4, probe PND (2 µM), overall metabolism of PND, bilirubin 100 μM
T1 construct: rat liver microsomes (RLMs) were prepared with 6 Sprague-Dawley males (6–8 weeks); from tissue; host or cells: liver microsomes of male Sprague-Dawley rats, prepared in house
T1 sequence (Q64550 30-535): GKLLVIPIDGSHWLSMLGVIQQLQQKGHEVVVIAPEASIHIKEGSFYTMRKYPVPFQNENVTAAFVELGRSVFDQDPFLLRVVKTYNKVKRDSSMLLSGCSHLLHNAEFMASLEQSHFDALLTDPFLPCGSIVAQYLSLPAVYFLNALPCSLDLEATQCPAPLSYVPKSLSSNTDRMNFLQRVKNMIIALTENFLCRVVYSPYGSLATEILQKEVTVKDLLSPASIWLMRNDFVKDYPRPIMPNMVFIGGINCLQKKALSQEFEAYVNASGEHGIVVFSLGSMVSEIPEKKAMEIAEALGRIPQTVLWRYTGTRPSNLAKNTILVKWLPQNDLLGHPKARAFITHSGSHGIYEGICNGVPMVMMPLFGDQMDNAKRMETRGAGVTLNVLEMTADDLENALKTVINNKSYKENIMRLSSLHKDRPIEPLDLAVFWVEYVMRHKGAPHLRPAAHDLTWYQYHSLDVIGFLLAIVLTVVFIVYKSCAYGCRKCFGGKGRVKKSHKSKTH

CYP2E1 = test: Chemical inhibition assay of PND metabolism in LMs, CYP2E1 inhibitor; type: in vitro ADME, rat, mouse and human; details: disulfiram 50 μM (CYP2E1 inhibitor), PND 2 µM, LMs 0.5 mg protein/mL
CYP3A4 = test: in vitro; details: male, Sprague-Dawley (rat), Kunming (mouse), human, liver microsomes, probe PND (2 µM)
UGT1A9 = molecular target: T2, UGT1A9 (Homo sapiens, UniProt O60656); test: Chemical inhibition assay of PND metabolism in HLM, UGT1A9 inhibitor; type: in vitro ADME; details: liver microsomes, probe PND (2 µM), overall metabolism of PND, niflumic acid 5 μM
T2 construct: Male Mongolia human microsomes (HLM), prepared from 30 male donors (19–78 years old); tissue RILD Liver Disease Research Co., Ltd. (Shanghai, China); host or cells: pooled human liver microsomes, 30 male donors
T2 sequence (O60656 26-530): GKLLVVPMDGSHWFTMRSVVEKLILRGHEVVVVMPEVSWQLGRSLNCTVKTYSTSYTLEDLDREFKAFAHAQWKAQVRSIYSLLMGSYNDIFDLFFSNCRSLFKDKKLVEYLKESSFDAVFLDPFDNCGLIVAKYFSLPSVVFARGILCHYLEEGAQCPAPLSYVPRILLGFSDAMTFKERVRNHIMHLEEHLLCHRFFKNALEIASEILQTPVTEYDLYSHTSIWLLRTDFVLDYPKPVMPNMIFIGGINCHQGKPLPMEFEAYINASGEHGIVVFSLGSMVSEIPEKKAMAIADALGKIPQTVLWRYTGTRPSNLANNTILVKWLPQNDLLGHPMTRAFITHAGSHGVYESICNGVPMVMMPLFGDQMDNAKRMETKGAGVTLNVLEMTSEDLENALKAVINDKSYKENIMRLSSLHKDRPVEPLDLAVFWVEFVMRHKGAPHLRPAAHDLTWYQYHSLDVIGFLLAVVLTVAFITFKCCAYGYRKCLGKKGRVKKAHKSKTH

CYP2C9 (CYP2C6) = test: in vitro; details: male, Sprague-Dawley (rat), Kunming (mouse), human, liver microsomes, probe PND (2 µM)
UGT1A6 [1] = molecular target: T3, UGT1A6 (Homo sapiens, UniProt P19224); test: Chemical inhibition assay of PND metabolism in human LMs, UGT1A6 inhibitor; type: in vitro ADME; details: liver microsomes, probe PND (2 µM), overall metabolism of PND, troglitazone 250 μM
T3 construct: Male Mongolia human microsomes (HLM), prepared from 30 male donors (19–78 years old); tissue RILD Liver Disease Research Co., Ltd. (Shanghai, China); host or cells: pooled human liver microsomes, 30 male donors
T3 sequence (P19224 27-532): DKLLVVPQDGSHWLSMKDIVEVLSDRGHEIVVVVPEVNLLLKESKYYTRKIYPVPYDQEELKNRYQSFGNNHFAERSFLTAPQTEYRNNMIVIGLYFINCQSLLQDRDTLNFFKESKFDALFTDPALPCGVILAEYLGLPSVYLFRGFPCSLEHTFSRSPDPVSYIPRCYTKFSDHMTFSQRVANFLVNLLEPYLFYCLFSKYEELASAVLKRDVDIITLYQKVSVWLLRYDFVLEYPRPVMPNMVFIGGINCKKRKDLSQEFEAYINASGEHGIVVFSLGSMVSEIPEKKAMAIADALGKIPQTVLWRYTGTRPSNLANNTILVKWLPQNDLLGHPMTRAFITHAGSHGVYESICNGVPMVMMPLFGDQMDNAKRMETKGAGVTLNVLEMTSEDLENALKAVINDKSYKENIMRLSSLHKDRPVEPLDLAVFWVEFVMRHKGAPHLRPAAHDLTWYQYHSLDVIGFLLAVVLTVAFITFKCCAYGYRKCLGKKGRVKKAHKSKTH

UGT1A6 [2] = molecular target: T4, UGT1A6 (Rattus norvegicus, UniProt P08430); test: Chemical inhibition assay of PND metabolism in RLM, UGT1A6 inhibitor; type: in vitro ADME; details: liver microsomes, pH 7.4, probe PND (2 µM), overall metabolism of PND, troglitazone 250 μM
T4 construct: rat liver microsomes (RLMs) were prepared with 6 Sprague-Dawley males (6–8 weeks); from tissue; host or cells: liver microsomes of male Sprague-Dawley rats, prepared in house
T4 sequence (P08430 26-529): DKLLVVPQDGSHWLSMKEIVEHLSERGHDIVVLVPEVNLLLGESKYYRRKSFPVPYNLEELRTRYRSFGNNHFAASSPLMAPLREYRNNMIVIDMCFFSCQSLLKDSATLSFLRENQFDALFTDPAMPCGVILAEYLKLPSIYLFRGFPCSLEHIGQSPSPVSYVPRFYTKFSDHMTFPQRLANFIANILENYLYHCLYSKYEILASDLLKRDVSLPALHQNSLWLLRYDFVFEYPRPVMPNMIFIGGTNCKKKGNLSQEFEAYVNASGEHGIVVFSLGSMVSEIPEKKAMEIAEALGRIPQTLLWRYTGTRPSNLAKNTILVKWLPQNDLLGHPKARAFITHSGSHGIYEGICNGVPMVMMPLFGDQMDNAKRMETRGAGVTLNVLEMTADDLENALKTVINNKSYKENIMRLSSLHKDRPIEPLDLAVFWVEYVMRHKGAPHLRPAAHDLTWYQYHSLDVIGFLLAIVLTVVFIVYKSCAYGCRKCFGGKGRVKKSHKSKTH

UGT1A6 [3] = molecular target: T5, UGT1A6 (Mus musculus, UniProt Q64435); test: Chemical inhibition assay of PND metabolism in MLM, UGT1A6 inhibitor; type: in vitro ADME; details: liver microsomes, pH 7.4, probe PND (2 µM), overall metabolism of PND, troglitazone 250 μM
T5 construct: Mouse liver microsomes (MLM) were prepared with 10 Kunming males (6–8 weeks); from tissue; host or cells: liver microsomes of male Kunming mice, prepared in house
T5 sequence (Q64435 27-531): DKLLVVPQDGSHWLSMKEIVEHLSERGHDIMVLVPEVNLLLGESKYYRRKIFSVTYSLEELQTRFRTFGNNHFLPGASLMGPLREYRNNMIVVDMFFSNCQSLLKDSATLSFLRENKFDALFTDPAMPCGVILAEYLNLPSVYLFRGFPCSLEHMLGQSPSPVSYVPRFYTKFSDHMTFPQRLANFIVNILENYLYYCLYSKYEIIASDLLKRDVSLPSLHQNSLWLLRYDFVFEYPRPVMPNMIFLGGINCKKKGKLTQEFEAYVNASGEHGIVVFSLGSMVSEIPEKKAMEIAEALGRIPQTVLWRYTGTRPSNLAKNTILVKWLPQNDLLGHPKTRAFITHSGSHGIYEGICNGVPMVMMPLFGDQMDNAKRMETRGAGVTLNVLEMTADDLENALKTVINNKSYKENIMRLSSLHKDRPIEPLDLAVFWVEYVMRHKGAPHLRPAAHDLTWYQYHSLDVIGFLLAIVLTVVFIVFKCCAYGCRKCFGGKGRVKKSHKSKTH

Question: How did the inhibition at 90 min, 100 μM (UGT1A1) turn out when `C=CC1=C(C)/C(=C/c2[nH]c(Cc3[nH]c(/C=C4\NC(=O)C(C)=C4C=C)c(C)c3CCC(=O)O)c(CCC(=O)O)c2C)NC1=O` [bilirubin] was run?
Answer: 64.3%

Question: `CCN(CC)C(=S)SSC(=S)N(CC)CC` [disulfiram] was tested. Which “Effect on metabolism of PND in LMs” value (CYP2E1) did it give?
Answer: decreased significantly

Question: For `CC(=O)N1CCN(c2ccc(OCC3COC(Cn4ccnc4)(c4ccc(Cl)cc4Cl)O3)cc2)CC1` (centres unmarked) [ketoconazole], which inhibition at 2 µM (CYP3A4) is on record?
Answer: 19 to 48%

Question: How did the inhibition at 90 min, 5 μM (UGT1A9) turn out when `O=C(O)c1cccnc1Nc1cccc(C(F)(F)F)c1` [niflumic acid] was run?
Answer: 36.7%

Question: With `Nc1ccc(S(=O)(=O)Nc2ccnn2-c2ccccc2)cc1` [sulphafenazole] as the molecule, how does the inhibition at 100 µM (CYP2C9 (CYP2C6)) read?
Answer: 19 to 48%

Question: How did the inhibition at 90 min, 250 μM (UGT1A6 [1]) turn out when `Cc1c(C)c2c(c(C)c1O)CCC(C)(COc1ccc(CC3SC(=O)NC3=O)cc1)O2` (centres unmarked) [troglitazone] was run?
Answer: 17.3%

Question: And the inhibition at 90 min, 250 μM (UGT1A6 [2])?
Answer: 68.6%

Question: What about the inhibition at 90 min, 250 μM (UGT1A6 [3]) of the same molecule?
Answer: 61.8%
